Reference: PubChem BioAssay AID504539 (Broad Institute, 2011)

Tested on: Cell-based prion protein 5' UTR reporter, plate reader
Assay: prion protein 5' UTR mRNA inhibitors – cell-based, plate reader, cherry-picked samples, dose response (AID 504539)

Row | SMILES | AC50
1 | COC(=O)c1c(N)sc(C(=O)NCCc2ccccc2)c1C | 413 nM
2 | CC(=O)OC(C)(C)/C=C/C(=O)C(C)(O)C1[C@H](O)C[C@@]2(C)C3CC=C4C(CC[C@@H](O)C4(C)C)[C@]3(CO)C(=O)C[C@]12C (stereo not given in full) | 85 nM
3 | COc1cc(C(=O)N2CCN(c3cccc(C)c3C)CC2)cc(OC)c1OC | 1410 nM
4 | CC(C)(C)c1ccc(C(=O)O/N=C(\N)c2ccccn2)cc1 | 317 nM
5 | C=CC[n+]1c(-c2ccc(C)cc2)csc1Nc1ccc(NC(C)=O)cc1 | 3620 nM
6 | CC1OC(OC2C=C3CCC4C(CCC5(C)C(c6ccc(=O)oc6)CCC45O)C3(C)CC2)C(O)C(OC2OC(CO)C(O)C(O)C2O)C1O (stereo not given) | < 38 nM
7 | Fc1ccc(-c2nnc(NC3=NCCCCC3)o2)cc1 | 372 nM
8 | CC(C)(C)C(=O)Nc1cc2nn(-c3ccccc3)nc2cc1Cl | < 38 nM
9 | COc1ccc(/C=C2\SC(=S)N(CCCC(=O)NNC(=O)c3ccccc3O)C2=O)cc1 | 630 nM
10 | Cc1ccc(-c2nc(-c3ccccn3)no2)cc1Cl | 351 nM
11 | CCn1c(C)nc2cc(-c3nc4n(n3)Cc3ccccc3-4)ccc21 | 44 nM
12 | CCOC(=O)c1ccc(NC(=O)Nc2ccon2)cc1 | 596 nM
13 | COC1C(O)C(C)OC(OC2CCC3(C=O)C(CCC4C3CCC3(C)C(C5=CC(=O)OC5)CCC43O)C2)C1O (stereo not given) | < 38 nM
14 | COC(=O)c1c(NC(=O)c2ccc([N+](=O)[O-])o2)sc2c1CCN(C(C)C)C2 | 2860 nM
15 | Cc1ccc(-n2[nH]c(=O)c(-c3ccccn3)c2C)cc1 | 368 nM
16 | C=CCn1c(C)cc(C2=NNC(=NC(C)(C)C)SC2)c1C | 714 nM
17 | COc1ccc(/C=C2\SC(=O)N(CCCC(=O)Nc3cc(Cl)ccc3C(=O)O)C2=O)cc1 | 242 nM
18 | O=c1c(Cl)c(N2CCCCC2)cnn1-c1nc2ccccc2[nH]1 | 501 nM
19 | COc1ccc(OC)c(N/C=C/C(=O)c2ccccc2)c1 | 558 nM
20 | CC(C)c1ccc(-c2nc3ccccc3s2)cc1 | < 38 nM
21 | Clc1ccc2nc(-c3ccccc3)nc(C(Cl)Cl)c2c1 | 885 nM
22 | COc1cc(-c2noc(C)c2/C=C/c2cccc([N+](=O)[O-])c2)cc(OC)c1OC | 2540 nM
23 | COc1cc(SC)ccc1C(=O)Nc1nc(C)cs1 | 216 nM
24 | c1ccc(-c2ccc(-c3nc(-c4ccccn4)no3)cc2)cc1 | 224 nM
25 | COc1ccc(OC)c(C2C3=C(COC3=O)Nc3cc4c(cc32)OCO4)c1 (stereo not given) | 197 nM
26 | CCN1C=CC(=C2C(=O)c3ccccc3C2=O)C=C1 | 89 nM
27 | Nc1ccc(-c2ncc(-c3ccccc3)o2)cc1 | 145 nM

Row | SMILES | AC50
28 | O=C(CN1C(=O)c2ccccc2S1(=O)=O)c1ccc2c(c1)OCCO2 | 114 nM
29 | COc1cc(C(=O)N2CCN(c3cc(Cl)ccc3Cl)CC2)cc(OC)c1OC | 1120 nM
30 | CC(=O)O[C@H]1C[C@@H]2OC3C=C(C)CCC3(C)[C@@]1(C)[C@@]21CO1 (stereo not given in full) | 2070 nM
31 | COc1ccccc1N1CCN(C(=O)c2cc(=O)c3cc(C)cc(C)c3o2)CC1 | 248 nM
32 | C=C1C(=O)O[C@@H]2C[C@@H](C)[C@@H]3C=CC(=O)[C@@]3(C)[C@@H](OC(=O)CC(=O)O[C@H]3[C@@H]4C(=C)C(=O)O[C@@H]4C[C@@H](C)[C@@H]4C=CC(=O)[C@]43C)[C@H]12 | 633 nM
33 | COc1cc(OC)c2c(-c3cccc(-c4ccc(C(C)=O)cc4)c3)cc(=O)oc2c1 | 1580 nM
34 | C[C@]12CCC3C(CCC4=CC(O)CC[C@@]43/C=N/O)C1(O)CCC2C1=CC(=O)OC1 (stereo not given in full) | 308 nM
35 | CC(C)(C)c1ccc(C(=O)Nc2ccc(CC(=O)O)cc2)o1 | 312 nM
36 | Cc1ccc(-c2nc(-c3ccccn3)no2)cc1 | 140 nM
37 | Cc1cc(C)c(C#N)c(SCc2nnc(-c3ccccc3)o2)n1 | 1990 nM
38 | CC(=O)OC(C)(C)/C=C/C(=O)[C@](C)(O)C1[C@H](O)C[C@@]2(C)C3CC=C4C(C[C@H](O)C(=O)C4(C)C)[C@]3(C)C(=O)C[C@]12C (stereo not given in full) | < 38 nM
39 | Cc1nc(SCC(=O)Nc2nc3ccccc3s2)c(C#N)c(C)c1C | < 38 nM
40 | CN(C)c1ccc(NC(=S)c2ccccn2)cc1 | 222 nM
41 | COc1cc(C(=O)N2CCN(c3ccccc3)CC2)c2ccccc2n1 | 574 nM
42 | Cc1ccc(N2C(=O)c3cccc4c(N)ccc(c34)C2=O)c2cccnc12 | 134 nM
43 | Cc1cc(C(=O)CSc2nnc3ccccn23)c(C)n1-c1ccccc1 | 480 nM
44 | COc1cc(OC)cc(-c2cc3nc(C)c(CCC(=O)O)c(C)n3n2)c1 | 1610 nM
45 | COc1cc(SC)ccc1C(=O)Nc1ncc(C)s1 | 361 nM
46 | CCC1=Nc2cc(C(=O)NCc3ccco3)ccc2Sc2ccc(C)cc21 | 652 nM
47 | Cc1ccc(CCC(=O)Nc2ncc(Cc3cc(Cl)ccc3Cl)s2)o1 | 841 nM
48 | CC(=O)OC1C(O)C(C)OC(OC2C(OC(=O)C3CCC4C(C3)OC3(CC(OC(=O)/C=C/c5ccccc5)C(C)CO3)C43CO3)OC(C)C(O)C2OC(C)=O)C1O (stereo not given) | 104 nM
49 | CC(=O)O[C@H]1C(=O)[C@@]2(C)C([C@H](OC(=O)c3ccccc3)[C@]3(O)C[C@H](OC(=O)[C@H](O)[C@@H](NC(=O)c4ccccc4)c4ccccc4)C(C)=C1C3(C)C)[C@]1(OC(C)=O)CO[C@@H]1C[C@H]2O (stereo not given in full) | 160 nM
50 | Cc1ccc(NC(=O)O/N=C/c2c(C)nn(C(C)(C)C)c2C)cc1Cl | 270 nM
51 | NC(=O)c1cc([N+](=O)[O-])ccc1NCc1ccc(N)cc1 | 490 nM
52 | COc1ccc(OC)c(-c2nnc3n2N=C(c2ccc(OC)c(OC4CCOC4)c2)CS3)c1 (stereo not given) | 554 nM
53 | Clc1ccccc1/C=C/c1nc(-c2ccccn2)no1 | 540 nM
54 | Nc1ccc(Oc2cccc(Oc3ccc(N)cc3)c2)cc1 | 587 nM

Row | SMILES | AC50
55 | O=C1/C(=C\c2ccc([N+](=O)[O-])cc2)CS(=O)(=O)C/C1=C/c1ccc([N+](=O)[O-])cc1 | 2060 nM
56 | O=C(CN1C(=O)c2ccccc2S1(=O)=O)c1ccc(OC(F)F)cc1 | 657 nM
57 | Cc1c(C(=O)OCC(C)C)[nH]c2c1C(=O)CC(c1ccco1)C2 (stereo not given) | 1260 nM
58 | CCN(CCCl)c1cc(CN(C)C)cc(NC(=O)c2ccc(C(=O)Nc3cc(CN(C)C)cc(N(CC)CCCl)c3)cc2)c1 | 472 nM
59 | Cc1[nH]nc2ccc(-c3cncc(OC[C@@H](N)Cc4c[nH]c5ccccc45)c3)cc12 | 335 nM
60 | COC1C(O)C(C)OC(OC2CCC3(C)C(CCC4C3C(O)CC3(C)C(C5=CC(=O)OC5)CCC43O)C2)C1O (stereo not given) | 150 nM
61 | CCC1(OC(=O)CN)C(=O)OCc2c1cc1n(c2=O)Cc2cc3ccccc3nc2-1 (stereo not given) | 987 nM
62 | Cc1cc2sc3ccc(C#CC4(O)CCCCC4)cc3c(=O)c2cc1C | < 38 nM
63 | C=C1CC(Cn2cc(Br)c(=O)[nH]c2=O)(c2ccc(-c3ccccc3)cc2)OC1=O (stereo not given) | 1160 nM
64 | COC(=O)C12OCC34C(CC5C(C)=C(O)C(=O)CC5(C)C3C(O)C1O)OC(=O)C(OC(=O)/C=C(\C)C(C)C)C24 (stereo not given) | < 38 nM
65 | Cc1cc(/C=N/Nc2ncnc(N)c2[N+](=O)[O-])c(C)n1-c1ccccc1 | 636 nM
66 | CCN(CC)c1ccc2cc(-c3nc4ccccc4[nH]3)c(=O)oc2c1 | 868 nM
67 | CN(C)c1ccc2c(c1)OC(N)=C(C#N)C2c1cccc(F)c1 (stereo not given) | 179 nM
68 | Cc1ccc(-c2cn3nc(C)c(C)nc3n2)cc1 | 485 nM
69 | O=C(Nc1ccc(N2CCCCC2)cc1)c1ccccn1 | 273 nM
70 | COc1ccc(C(=O)c2cc([N+](=O)[O-])ccc2N2CCOCC2)cc1 | 397 nM
71 | C/C=C/COC(=O)c1[nH]c2c(c1C)C(=O)CC(c1ccco1)C2 (stereo not given) | 660 nM
72 | Cc1ccc(C(=O)c2cc([N+](=O)[O-])ccc2N2CCCCC2)cc1 | 848 nM
73 | COc1cccc(/C=N/Nc2ccc(C(=O)O)cc2)c1O | 222 nM
74 | COc1ccc(-c2cc3nc(C)n(N)c(=O)c3s2)cc1 | 113 nM
75 | COc1cc2c(c(OC)c1OC)-c1ccc(OC)c(=O)cc1[C@@H](N(C)CC#CCO)CC2 | 235 nM
76 | c1ccc2nc(-c3ccc(N4CCOCC4)cc3)ccc2c1 | 385 nM
77 | Cc1cc([N+](=O)[O-])c2ccccc2[n+]1[O-] | 256 nM
78 | CC1(C)CC[C@]2(C(=O)n3ccnc3)CC[C@]3(C)[C@H](C(=O)C=C4[C@@]5(C)C=C(C#N)C(=O)C(C)(C)[C@@H]5CC[C@]43C)[C@@H]2C1 | 808 nM
79 | O=C1C(=C2SCCCS2)CC/C1=C\c1ccc(F)cc1 | 292 nM
80 | CCOc1ccc(C(=O)O/N=C(\N)c2ccccn2)cc1 | 134 nM
81 | CCCOc1ccc2cc(-c3ccccn3)c(=O)oc2c1 | 399 nM

Row | SMILES | AC50
82 | O=c1c2ccccc2oc2cc(C#CC3(O)CCCCC3)ccc12 | 1840 nM
83 | COc1cc(C2c3cc4c(cc3OC(NNC(N)=O)C2C)OCO4)cc(OC)c1OC (stereo not given) | 822 nM
84 | O=C(Nc1ccc([N+](=O)[O-])cc1)C(=O)Nc1cccc(C(=O)O)c1 | 164 nM
85 | CCOc1ccc2c(c1)C(C)=CC(C)(C)N2S(=O)(=O)c1ccc(C)cc1 | 1590 nM
86 | C(=NN1CCCCCC1)c1ccc2ccccc2n1 | < 38 nM
87 | COc1cc2c(c(OC)c1O)-c1ccc(OC)c(=O)cc1C(NC(=O)C(F)(F)F)CC2 (stereo not given) | 140 nM
88 | COc1ccc(-c2nsc3c(N4CCCCC4C)ncnc23)cc1 (stereo not given) | 51 nM
89 | Cc1ccc(-c2cc3c(nn2)-c2ccccc2C3=O)cc1 | 575 nM
90 | Cc1nc2cc(-c3ccccc3)sc2c(=O)n1N | 284 nM
91 | CCN(CC)c1ccc(-c2nn3c(-c4n[nH]c5c4CCC5)nnc3s2)cc1 | 986 nM
92 | CCC(C)(C)c1ccc(Oc2ccc(N)cc2)cc1 | 173 nM
93 | COc1ccc(N/C=C/C(=O)c2cc(OC)c(OC)c(OC)c2)cc1 | 2440 nM
94 | O=C(Nc1ccc(N2CCOCC2)cc1)c1cnsn1 | 486 nM
95 | Cc1nn(-c2ccccc2)c(C)c1/C=N/NC(=O)c1cc(-c2cccs2)[nH]n1 | 1070 nM
96 | CC(=O)O[C@H]1C(=O)[C@]2(C)[C@H]([C@H](OC(=O)c3ccccc3)[C@]3(O)C[C@H](OC(=O)[C@H](O)[C@@H](NC(=O)c4ccccc4)c4ccccc4)C(C)=C1C3(C)C)[C@]1(OC(C)=O)CO[C@@H]1C[C@@H]2O | 188 nM
97 | Cc1cc(C=C2C(=O)c3ccccc3C2=O)c(C)n1-c1ccccc1 | 809 nM
98 | CCCN1C=CC(=C2C(=O)c3ccccc3C2=O)C=C1 | 169 nM
99 | Cc1ccc2nc3sc(C(=O)N4CCOCC4)c(N)c3cc2c1 | 275 nM
100 | COc1ccc(C(=O)/C=C/Nc2ccccn2)cc1 | 369 nM
101 | Cc1cccc(-n2ncc3c(N(C)C4CCCCC4)ncnc32)c1 | 796 nM
102 | COc1ccccc1C(=O)Nc1nc2ccccc2s1 | 204 nM
103 | Cc1ccc(Sc2c(CO)c(-c3ccccc3)nn2C)cc1 | 528 nM
104 | N/C(=N\OCc1ccc([N+](=O)[O-])cc1)c1ccccn1 | 219 nM
105 | Cc1ccc(-n2nnc(-c3nccs3)n2)cc1 | 571 nM
